The text below walks through data of ChEMBL document CHEMBL5728032, “Fluorine-containing triazolopyridine, and manufacturing method, pharmaceutical composition, and application thereof” (2020).

The EC50 is the concentration giving half of the maximal effect.

Sequence of Metabotropic glutamate receptor 2 (Q14416 whole entry): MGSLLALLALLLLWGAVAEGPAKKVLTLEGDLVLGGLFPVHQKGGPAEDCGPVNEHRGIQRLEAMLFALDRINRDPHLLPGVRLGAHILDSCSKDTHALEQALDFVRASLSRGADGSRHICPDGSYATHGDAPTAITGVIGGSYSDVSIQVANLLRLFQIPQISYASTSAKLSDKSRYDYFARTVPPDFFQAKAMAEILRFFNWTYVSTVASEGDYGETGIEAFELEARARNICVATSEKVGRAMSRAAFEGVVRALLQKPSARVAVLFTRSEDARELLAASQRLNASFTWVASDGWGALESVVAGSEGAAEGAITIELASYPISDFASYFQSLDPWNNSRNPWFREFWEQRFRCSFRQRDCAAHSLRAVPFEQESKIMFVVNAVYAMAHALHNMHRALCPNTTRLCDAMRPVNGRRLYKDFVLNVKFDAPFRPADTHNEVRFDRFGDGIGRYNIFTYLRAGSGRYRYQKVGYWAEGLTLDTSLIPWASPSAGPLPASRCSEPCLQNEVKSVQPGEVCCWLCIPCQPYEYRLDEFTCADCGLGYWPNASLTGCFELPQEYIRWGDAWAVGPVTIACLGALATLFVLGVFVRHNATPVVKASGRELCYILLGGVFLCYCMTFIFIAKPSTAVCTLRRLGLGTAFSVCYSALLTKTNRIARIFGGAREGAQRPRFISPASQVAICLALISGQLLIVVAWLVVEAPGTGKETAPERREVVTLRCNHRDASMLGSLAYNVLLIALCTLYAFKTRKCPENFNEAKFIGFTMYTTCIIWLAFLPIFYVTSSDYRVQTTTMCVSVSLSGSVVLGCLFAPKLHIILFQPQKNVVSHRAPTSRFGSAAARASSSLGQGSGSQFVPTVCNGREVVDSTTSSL

The assay addresses Metabotropic glutamate receptor 2 (Homo sapiens, UniProt Q14416). The assay can be described thus: In Vitro Activity Test for mGluR2: Experimental materials: HEK/mGluR2 cell line ([…] transfected HEK cell line), DMEM (FBS) medium, positive control LY487379 (purchased from sigma; CAS: to 352317-17-1)Experimental instrument: FLIPR Tetra real-time fluorescence imaging analysis systemExperimental method: HDB Fluo-8 calcium fluorescence detection methodExperimental principle: HDB Fluo-8 calcium ion fluorescence detection method is a fast, simple and reliable fluorescence detection method of intracellular calcium concentration changes. The Fluo 8-AM fluorescent dye is an acetyl methyl ester derivative of Fluo 8 which can easily penetrate into the cell membrane by culture. The fluorescent dye in the cell will be hydrolyzed by intracellular esterase, the resulting Fluo 8 as a polar molecule, cannot easily pass through the lipid bimolecular membrane, and will be retained in the cell, and combine with calcium (Ca2+) to produce fluoresces.Cells expressing GPCR receptor protein (mGluR2) were first calibrated with a calcium ion sensitive fluorescent probe and then stimulated with the compound. After stimulation, the receptor activates the calcium ion mobilization, and the fluorescent probe captures the calcium ion to induce the fluorescence signal. The signal can be read by a fluoroscopy plate. The fluorescent plate reader contains a sample addition for compound addition, thus enabling the change of the fluorescence value of the compound be read in real time. It counts as cell-based. In general terms: Calcium assays in cells follow changes in intracellular calcium, usually with a dye or a luminescent sensor.
Turning to `COC(=O)c1ccc(-c2ccn3c(CC4CC4)nnc3c2Cl)c(F)c1`, the EC50 was found to be 910 nM.
Turning to `Clc1c(-c2ccc3c(c2)OCO3)ccn2c(CC3CC3)nnc12`, the EC50 is 890 nM.
As for `c1cc2c(cc1-c1ccn3c(CC4CC4)nnc3c1)OCO2`, the figure is 970 nM.
